Results as given in US8552022B2, “Substituted cyclopropyl compounds, compositions containing such compounds and methods of treatment” (Merck Sharp & Dohme Corp., priority 2009, dated 2013).

Target: T1, GPR119 (UniProt Q8TDV5, S309L, species not given)
T1 sequence (Q8TDV5 1-335 S309L): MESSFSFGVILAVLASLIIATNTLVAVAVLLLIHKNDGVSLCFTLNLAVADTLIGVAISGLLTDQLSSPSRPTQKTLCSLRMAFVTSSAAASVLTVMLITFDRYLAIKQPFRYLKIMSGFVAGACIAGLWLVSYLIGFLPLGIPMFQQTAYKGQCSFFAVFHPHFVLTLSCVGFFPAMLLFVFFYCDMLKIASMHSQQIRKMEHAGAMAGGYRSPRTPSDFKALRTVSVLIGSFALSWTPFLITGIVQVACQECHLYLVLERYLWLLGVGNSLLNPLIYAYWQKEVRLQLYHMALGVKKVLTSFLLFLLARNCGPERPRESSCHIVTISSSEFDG
Assay: GPR119 signaling, cyclic AMP (cAMP) HTRF assay
Type: cell-based, human (S309L variant) or murine
Conditions: CHO cells with Gα15 and murine GPR119 or HEK293 Flp-In cells with human GPR119 S309L, read-out: EC50 (agonist activation of GPR119, cAMP)
Excerpt: The title compound was synthesized using 2-{2-[1-(5-chloropyrimidin-2-yl)piperidin-4-yl]cyclopropyl}ethyl 4-methylbenzenesulfonate from step 1 of this example by a general procedure analogous that described in Example 59. LRMS calc: 424.9; obs: 425.01 (M+1). Measurement of GPR119Signaling Using a Cyclic AMP (cAMP) Homogenous Time Resolved Fluorescence (HTRF) Assay
Chinese hamster ovary (CHO) cell lines stably transfected with the permissive guanine nucleotide binding protein alpha 15 (Gα15) and murine GPR119 were maintained in DMEM media containing FBS, penicillin-streptomycin, puromycin, and G418 (geneticin). Alternatively, human embryonic kidney (HEK)293 Flp-In cells (Invitrogen, Carlsbad, Calif.) were stably transfected with a human SNP variant (S309L) of GPR119 and maintained in DMEM media containing FBS, penicillin-streptomycin, and hygromycin. Agonist activation of the GPR119 receptor was measured in receptor transfected cells described above, treated with compounds of this invention, using a commercial homogenous time resolved fluorescence (HTRF) kit for measurement of cAMP (CisBio, Bedford, Mass.). The assay was performed in 96-well half-volume plates (murine) or 384-well plates (human) following the manufacturers instructions. Briefly, suspended cells were incubated with a dose titration of test compound at room temperature for 60 min, lysed, and incubated with HTRF reagents for an additional 60 min. The plate was read using an Envision multilabel reader (Perkin Elmer) adjusted to read time resolved fluorescence and the cAMP concentrations were extrapolated from a cAMP calibration curve. […] The concentration of test compound required to stimulate a half-maximal response (EC50), and efficacy as compared to an internal agonist control, was determined from a sigmoidal 4-parameter curve fit of the resulting plot of normalized activity versus compound concentration.

## CN1C(=O)Cc2cc(NCC[C@@H]3C[C@@H]3C3CCN(c4ncc(Cl)cn4)CC3)ccc21 [Ex 51, 5-[(2-{(1S,2S)-2-[1-(5-chloropyrimidin-2-yl)piperidin-4-yl]cyclopropyl}ethyl)amino]-1-methyl-1,3-dihydro-2H-indol-2-one]
  EC50: < 10 nM

## CC(=O)Nc1ccc(NCC[C@@H]2C[C@@H]2C2CCN(c3ncc(Cl)cn3)CC2)cc1 [Ex 52, N-{4-[(2-{(1S,2S)-2-[1-(5-chloropyrimidin-2-yl)piperidin-4-yl]cyclopropyl}ethyl)amino]phenyl}acetamide]
  EC50: 10 to 50 nM

## O=C1Cc2cc(NCC[C@@H]3C[C@@H]3C3CCN(c4ncc(Cl)cn4)CC3)cc(F)c2N1 [Ex 53, 5-[(2-{(1S,2S)-2-[1-(5-chloropyrimidin-2-yl)piperidin-4-yl]cyclopropyl}ethyl)amino]-7-fluoro-1,3-dihydro-2H-indol-2-one]
  EC50: < 10 nM

## O=C1Cc2cc(NCC[C@@H]3C[C@@H]3C3CCN(c4ncc(Cl)cn4)CC3)cc(Cl)c2N1 [Ex 54, 7-chloro-5-[(2-{(1S,2S)-2-[1-(5-chloropyrimidin-2-yl)piperidin-4-yl]cyclopropyl}ethyl)amino]-1,3-dihydro-2H-indol-2-one]
  EC50: < 10 nM

## CC(=O)Nc1ccc(NCC[C@@H]2C[C@@H]2C2CCN(c3ncc(Cl)cn3)CC2)cn1 [Ex 55, N-{5-[(2-{(1S,2S)-2-[1-(5-chloropyrimidin-2-yl)piperidin-4-yl]cyclopropyl}ethyl)amino]pyridin-2-yl}acetamide]
  EC50: < 10 nM

## CC(C)(C)C(=O)Nc1ccc(NCC[C@@H]2C[C@@H]2C2CCN(c3ncc(Cl)cn3)CC2)cn1 [Ex 56, N-{5-[(2-{(1S,2S)-2-[1-(5-chloropyrimidin-2-yl)piperidin-4-yl]cyclopropyl}ethyl)amino]pyridin-2-yl}-2,2-dimethyl propanamide]
  EC50: < 10 nM

## Clc1cnc(N2CCC([C@H]3C[C@H]3CCNc3ccc4cn[nH]c4c3)CC2)nc1 [Ex 57, N-(2-{(1S,2S)-2-[1-(5-chloropyrimidin-2-yl)piperidin-4-yl]cyclopropyl}ethyl)-1H-indazol-6-amine]
  EC50: < 10 nM
